As usually defined, the IC50 is the concentration needed to halve the response being measured.

The values that follow come from US20240158392A1 (Janssen Biotech, Inc., priority 2021, published 2024).

Molecules are shown by their SMILES. Where two headings read alike, the source gives them in different places.

The target of this assay is SIK2 (Homo sapiens, UniProt Q9H0K1). As to the kind of experiment: SIK2 Enzymatic Assay High Version 2 (High ATP). The format is biochemical. The method, then:
All steps were performed at room temperature. Compounds were pre-plated onto an assay plate using an Echo acoustic dispenser (Labcyte, E550 or E555) at 80 nL per well. Enzyme prepared in assay buffer at 6 nM (2× final concentration) was added at 4 μL per well using the Multidrop Combi (Thermo Fisher—used for all additions in this assay) to the assay plate, spun for 1 min at 1000 rpm (Allegra 6KR Beckman Coulter centrifuge), and incubated with compound for 30 minutes. Assay buffer containing 6 mM ATP and 400 μM HDAC5tide (2× of final concentration for each substrate) was added at 4 μL per well to the assay plate and then spun as above and incubated for 2 hours. […] ADP-Glo Max Reagent (prepared and aliquoted as per manufacturer instructions) was then added at 8 μL per well, spun and incubated for 2 hours. ADP-Glo Max Detection (prepared and aliquoted as per manufacturer instructions) was added at 8 μL per well to the assay plate, which was spun and incubated for 1 hour. The plate is then read on the Pherastar (BMG Labtech) using a luminescence read. Gain is set between 2200-2500.

[1] abbreviates: enzyme 6 nM, 6 mM ATP and 400 μM HDAC5tide (each 2× final concentration), 30 minutes pre-incubation, 2 hours, ADP-Glo Max luminescence, read-out: SIK2 high ATP IC50 (μM) (Test Example 2).

SIK2, sequence (Q9H0K1 whole entry, species assumed): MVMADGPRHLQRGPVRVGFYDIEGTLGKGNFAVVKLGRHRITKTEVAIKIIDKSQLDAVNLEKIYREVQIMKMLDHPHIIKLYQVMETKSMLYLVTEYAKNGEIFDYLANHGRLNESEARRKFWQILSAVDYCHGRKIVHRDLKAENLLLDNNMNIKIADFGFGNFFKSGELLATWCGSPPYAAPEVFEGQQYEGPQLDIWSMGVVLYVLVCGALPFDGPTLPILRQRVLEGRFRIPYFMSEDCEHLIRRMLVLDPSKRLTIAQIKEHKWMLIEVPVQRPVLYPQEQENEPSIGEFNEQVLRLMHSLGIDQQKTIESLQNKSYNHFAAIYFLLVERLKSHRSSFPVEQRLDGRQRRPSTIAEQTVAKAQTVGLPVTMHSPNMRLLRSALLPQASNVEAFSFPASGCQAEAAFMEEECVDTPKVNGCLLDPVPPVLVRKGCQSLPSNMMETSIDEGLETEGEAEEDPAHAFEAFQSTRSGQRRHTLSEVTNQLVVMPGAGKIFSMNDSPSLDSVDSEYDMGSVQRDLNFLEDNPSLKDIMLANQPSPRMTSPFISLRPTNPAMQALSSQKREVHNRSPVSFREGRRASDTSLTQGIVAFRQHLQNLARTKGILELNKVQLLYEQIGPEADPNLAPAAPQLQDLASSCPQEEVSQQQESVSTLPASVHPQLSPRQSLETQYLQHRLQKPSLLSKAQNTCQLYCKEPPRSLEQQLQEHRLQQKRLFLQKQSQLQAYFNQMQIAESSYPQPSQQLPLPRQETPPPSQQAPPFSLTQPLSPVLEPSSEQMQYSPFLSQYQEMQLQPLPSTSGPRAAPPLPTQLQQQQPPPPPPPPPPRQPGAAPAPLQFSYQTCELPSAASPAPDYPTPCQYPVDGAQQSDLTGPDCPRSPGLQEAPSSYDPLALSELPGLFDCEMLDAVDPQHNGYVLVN

As for `Cc1cc(-c2ccn3nc(NC(=O)C4CC4)cc3c2)c(OC[C@]2(C#N)CCNC2)cn1` (single isomer, unassigned) [Example 211, (*R)—N-[5-[5-[[(3R)-3-cyanopyrrolidin-3-yl]methoxy]-2-methyl-4-pyridyl]pyrazolo[1,5-a]pyridin-2-yl]cyclopropanecarboxamide], under setting [1], the IC50 is 0.013 µM.

Take `Cc1cc(-c2ccn3nc(NC(=O)C4CC4)cc3c2)c(OC[C@@]2(C#N)CCN(C)C2)cn1` (single isomer, unassigned) [Example 212, (*S)—N-[5-[5-[(3-cyano-1-methyl-pyrrolidin-3-yl)methoxy]-2-methyl-4-pyridyl]pyrazolo[1,5-a]pyridin-2-yl]cyclopropanecarboxamide]: the IC50 under setting [1] was 0.0472 µM.

On to `Cc1cc(-c2ccn3nc(NC(=O)C4CC4)cc3c2)c(OC[C@]2(C#N)CCN(C)C2)cn1` (single isomer, unassigned) [Example 213, (*R)—N-[5-[5-[(3-cyano-1-methyl-pyrrolidin-3-yl)methoxy]-2-methyl-4-pyridyl]pyrazolo[1,5-a]pyridin-2-yl]cyclopropanecarboxamide], for which the IC50 under setting [1] is 0.0505 µM.

As for `CO[C@]1(COc2cnc(C)cc2-c2ccn3nc(NC(=O)C4CC4)cc3c2)CCNC1` (single isomer, unassigned) [Example 214, (*R)—N-[5-[5-[(3-methoxypyrrolidin-3-yl)methoxy]-2-methyl-4-pyridyl]pyrazolo[1,5-a]pyridin-2-yl]cyclopropanecarboxamide], under setting [1], the IC50 was found to be 0.0324 µM.

Take `CO[C@@]1(COc2cnc(C)cc2-c2ccn3nc(NC(=O)C4CC4)cc3c2)CCNC1` (single isomer, unassigned) [Example 215, (*S)—N-[5-[5-[(3-methoxypyrrolidin-3-yl)methoxy]-2-methyl-4-pyridyl]pyrazolo[1,5-a]pyridin-2-yl]cyclopropanecarboxamide]: the IC50 under setting [1] was found to be 0.0037 µM.

`Cc1cc(-c2ccn3nc(Nc4cc(C)nc(C)n4)cc3c2)c(OC[C@@]2(O)CCCOC2)cn1` (single isomer, unassigned) [Example 216, (*R)-3-[[4-[2-[(2,6-dimethylpyrimidin-4-yl)amino]pyrazolo[1,5-a]pyridin-5-yl]-6-methyl-3-pyridyl]oxymethyl]tetrahydropyran-3-ol]: the IC50 under setting [1] turned out to be 0.0311 µM.

With `Cc1cc(-c2ccn3nc(Nc4cc(C)nc(C)n4)cc3c2)c(OC[C@@H]2CC3(CCCC3)CO2)cn1` (single isomer, unassigned) [Example 219, (*S)—N-(2,6-dimethylpyrimidin-4-yl)-5-[2-methyl-5-(8-oxaspiro[4.4]nonan-7-ylmethoxy)-4-pyridyl]pyrazolo[1,5-a]pyridin-2-amine], the half-inhibitory concentration (IC50) under setting [1] was 0.0497 µM.

Regarding `Cc1cc(-c2ccn3nc(Nc4cc(C)nc(C)n4)cc3c2)c(OC[C@@H]2CC3(CCC3)CO2)cn1` (single isomer, unassigned) [Example 220, (*S)-5-(5-((6-oxaspiro[3.4]octan-7-yl)methoxy)-2-methylpyridin-4-yl)-N-(2,6-dimethylpyrimidin-4-yl)pyrazolo[1,5-a]pyridin-2-amine], the IC50 under setting [1] amounted to 0.0142 µM.

Consider `Cc1cc(-c2ccn3nc(NC(=O)C4CC4)cc3c2)c(OCC2(O)CCNC2)cn1` (single isomer, unassigned) [Example 222, (*S)—N-[5-[5-[(3-hydroxypyrrolidin-3-yl)methoxy]-2-methyl-4-pyridyl]pyrazolo[1,5-a]pyridin-2-yl]cyclopropanecarboxamide], for which the 50% inhibitory concentration (IC50) under setting [1] is 0.0119 µM.

Take `Cc1cc(-c2ccn3nc(NC(=O)C4CC4)cc3c2)c(OCC2(O)CCNC2)cn1` (single isomer, unassigned) [Example 223, (*R)—N-[5-[5-[(3-hydroxypyrrolidin-3-yl)methoxy]-2-methyl-4-pyridyl]pyrazolo[1,5-a]pyridin-2-yl]cyclopropanecarboxamide]: under setting [1], the IC50 came out at 0.0278 µM.

Take `Cc1cc(-c2ccn3nc(Nc4cc(C)nc(C)n4)cc3c2)c(OC[C@@H]2CCC3(CCCC3)O2)cn1` (single isomer, unassigned) [Example 230, (*S)—N-(2,6-dimethylpyrimidin-4-yl)-5-[2-methyl-5-(9-oxaspiro[4.4]nonan-8-ylmethoxy)-4-pyridyl]pyrazolo[1,5-a]pyridin-2-amine]: the IC50 under setting [1] was found to be 0.0377 µM.

Regarding `Cc1cc(-c2ccn3nc(Nc4cc(C)nc(C)n4)cc3c2)c(OC[C@H]2CCC3(CCCC3)O2)cn1` (single isomer, unassigned) [Example 231, (*R)—N-(2,6-dimethylpyrimidin-4-yl)-5-[2-methyl-5-(9-oxaspiro[4.4]nonan-8-ylmethoxy)-4-pyridyl]pyrazolo[1,5-a]pyridin-2-amine], the IC50 under setting [1] came out at 0.00839 µM.

`Cc1cc(-c2ccn3nc(Nc4cc(C)nc(C)n4)cc3c2)c(OC[C@]2(C)CCCO2)cn1` (single isomer, unassigned) [Example 232, (*S)—N-(2,6-dimethylpyrimidin-4-yl)-5-[2-methyl-5-[(2-methyltetrahydrofuran-2-yl)methoxy]-4-pyridyl]pyrazolo[1,5-a]pyridin-2-amine]: the IC50 under setting [1] was 0.0245 µM.

Turning to `Cc1cc(-c2ccn3nc(Nc4cc(C)nc(C)n4)cc3c2)c(OC[C@H]2CC3(CCCC3)CO2)cn1` (single isomer, unassigned) [Example 258, (*R)—N-(2,6-dimethylpyrimidin-4-yl)-5-[2-methyl-5-(8-oxaspiro[4.4]nonan-7-ylmethoxy)-4-pyridyl]pyrazolo[1,5-a]pyridin-2-amine], under setting [1], the IC50 amounted to 0.153 µM.

As to `Cc1cc(-c2ccn3nc(Nc4cc(C)nc(C)n4)cc3c2)c(OCC(C)(O)C(F)(F)F)cn1` (single isomer, unassigned) [Example 263, (*S)-3-[[4-[2-[(2,6-dimethylpyrimidin-4-yl)amino]pyrazolo[1,5-a]pyridin-5-yl]-6-methyl-3-pyridyl]oxy]-1,1,1-trifluoro-2-methyl-propan-2-ol], the concentration for half-maximal inhibition (IC50) under setting [1] was 0.00844 µM.

Turning to `Cc1cc(-c2ccn3nc(Nc4cc(C)nc(C)n4)cc3c2)c(OC[C@@](C)(O)C(F)(F)F)cn1` (single isomer, unassigned) [Example 264, (*R)-3-[[4-[2-[(2,6-dimethylpyrimidin-4-yl)amino]pyrazolo[1,5-a]pyridin-5-yl]-6-methyl-3-pyridyl]oxy]-1,1,1-trifluoro-2-methyl-propan-2-ol], the IC50 under setting [1] turned out to be 0.0348 µM.

On to `Cc1cc(-c2ccn3nc(Nc4cc(C)nc(C)n4)cc3c2)c(OC[C@@](C)(N)C(F)(F)F)cn1` (single isomer, unassigned) [Example 270, (*R)-5-[5-(2-Amino-3,3,3-trifluoro-2-methyl-propoxy)-2-methyl-4-pyridyl]-N-(2,6-dimethylpyrimidin-4-yl)pyrazolo[1,5-a]pyridin-2-amine], for which the IC50 under setting [1] is 0.0193 µM.

In the case of `Cc1cc(-c2ccn3nc(Nc4cc(C)nc(C)n4)cc3c2)c(OC[C@](C)(N)C(F)(F)F)cn1` (single isomer, unassigned) [Example 304, (*S)-5-[5-(2-amino-3,3,3-trifluoro-2-methyl-propoxy)-2-methyl-4-pyridyl]-N-(2,6-dimethylpyrimidin-4-yl)pyrazolo[1,5-a]pyridin-2-amine], the IC50 under setting [1] worked out at 0.0028 µM.

As to `Cc1cc(-c2ccn3nc(Nc4cc(C)c(=O)n(C)n4)cc3c2)c(OC2CCC(S(C)(=O)=O)CC2)cn1` (single isomer, unassigned) [Example 306, 2,4-dimethyl-6-((5-(2-methyl-5-(((1r,4r)-4-(methylsulfonyl)cyclohexyl)oxy)pyridin-4-yl)pyrazolo[1,5-a]pyridin-2-yl)amino)pyridazin-3(2H)-one], under setting [1], the IC50 was found to be 0.0358 µM.

As for `Cc1cc(-c2ccn3nc(Nc4cc(C)c(=O)n(C)n4)cc3c2)c(OC[C@@](C)(N)C(F)(F)F)cn1` (single isomer, unassigned) [Example 311, (*R)-6-[[5-[5-(2-amino-3,3,3-trifluoro-2-methyl-propoxy)-2-methyl-4-pyridyl]pyrazolo[1,5-a]pyridin-2-yl]amino]-2,4-dimethyl-pyridazin-3-one], under setting [1], the IC50 worked out at 0.0057 µM.

On to `Cc1cc(-c2ccn3nc(Nc4cc(C)c(=O)n(C)n4)cc3c2)c(OC[C@](C)(N)C(F)(F)F)cn1` (single isomer, unassigned) [Example 312, (*S)-6-[[5-[5-(2-amino-3,3,3-trifluoro-2-methyl-propoxy)-2-methyl-4-pyridyl]pyrazolo[1,5-a]pyridin-2-yl]amino]-2,4-dimethyl-pyridazin-3-one], for which, under setting [1], the IC50 was less than 0.000847 µM.

The molecule `Cc1cc(-c2ccn3nc(Nc4cc(C)nc(C)n4)cc3c2)c(OC[C@@H]2CC[C@@H](O)CO2)cn1` (single isomer, unassigned) [Example 346, (3*R,6*S)-6-[[4-[2-[(2,6-dimethylpyrimidin-4-yl)amino]pyrazolo[1,5-a]pyridin-5-yl]-6-methyl-3-pyridyl]oxymethyl]tetrahydropyran-3-ol] displayed an IC50 of 0.0167 µM.

Molecule `Cc1cc(-c2ccn3nc(Nc4cc(C)nc(C)n4)cc3c2)c(OC[C@H]2CC[C@H](O)CO2)cn1` (single isomer, unassigned) [Example 347, (3*S,6*S)-6-[[4-[2-[(2,6-dimethylpyrimidin-4-yl)amino]pyrazolo[1,5-a]pyridin-5-yl]-6-methyl-3-pyridyl]oxymethyl]tetrahydropyran-3-ol] gave an IC50 of 0.0352 µM.

Regarding `Cc1cc(-c2cn3cc(Nc4cc(C)nc(C)n4)nc3cn2)c(O[C@H]2C[C@H]3COC[C@@H](C2)N3)cn1` (single isomer, unassigned) [Example 348], the half-inhibitory concentration (IC50) is less than 0.000847 µM.
